In one assay the target is NRAS Q61R (Homo sapiens (Human), UniProt P01111+P62937, Q61R). Briefly: Ras-Raf (BRAF RBD) disruption / FRET / MOA assay, NRAS Q61R. It is filed as biochemical. To be noted: NRAS Q61R; Ras-Raf disruption/FRET/MOA assay; read-out: IC50* NRAS Q61R FRET data. The method in brief:
(§1)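 Compounds (30 μM top final, 10-point 3-fold dilutions) incubated 3 h at 25° C with nucleotide-loaded Ras, cyclophilin A and BRAF RBD. Detection with 10 nM anti-His Eu-W1024 and 50 nM anti-GST allophycocyanin over another 1.5 h. Lowered TR-FRET ratio relative to DMSO wells gives IC50.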

Another assay has as its target KRAS Q61H (Homo sapiens (Human), UniProt P01116+P62937, Q61H). Briefly: Ras-Raf (BRAF RBD) disruption / FRET / MOA assay, KRAS Q61H. It is filed as biochemical. To be noted: Ras-Raf disruption/FRET/MOA assay; class symbols; read-out: KRAS Q61H FRET data IC50. The method in brief: as §1
A further assay deals with K-Ras G13C (Homo sapiens (Human), UniProt P01116+P62937, G13C). Briefly: Ras-Raf (BRAF RBD) disruption / FRET / MOA assay, KRAS G13C. The class given is biochemical. To be noted: KRAS G13C; Ras-Raf disruption/FRET/MOA assay; read-out: IC50* KRAS G13C FRET data. The gist of the method:
(§2)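 A 10-point, 3-fold dilution series topping at 30 μM final was incubated 3 h at 25° C with the Ras/cyclophilin A/BRAF RBD mixture.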

The target of a further assay is K-Ras G12C (Homo sapiens (Human), UniProt P01116+P62937, G12C). Briefly: Ras-Raf (BRAF RBD) disruption / FRET / MOA assay, KRAS G12C. It is filed as biochemical. To be noted: KRAS G12C; Ras-Raf disruption/FRET/MOA assay; read-out: IC50* KRAS G12C FRET data. The method in brief: as §2
Chain of K-Ras G12C (P01116-2 other isoform, or with tags, fused parts or gaps G12C): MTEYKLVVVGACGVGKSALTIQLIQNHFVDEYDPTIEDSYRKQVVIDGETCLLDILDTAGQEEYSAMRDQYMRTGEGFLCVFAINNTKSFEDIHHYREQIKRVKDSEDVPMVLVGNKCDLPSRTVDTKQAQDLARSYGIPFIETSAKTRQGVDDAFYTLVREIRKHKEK
Chain of K-Ras G12C (P62937 whole entry): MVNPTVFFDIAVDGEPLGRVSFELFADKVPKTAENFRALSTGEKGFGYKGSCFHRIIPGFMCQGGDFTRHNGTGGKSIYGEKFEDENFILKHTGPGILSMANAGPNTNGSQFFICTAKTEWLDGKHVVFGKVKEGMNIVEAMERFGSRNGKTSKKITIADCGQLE
For the next assay, the target named is NRAS WT (Homo sapiens (Human), UniProt P01111+P62937). Briefly: Ras-Raf (BRAF RBD) disruption / FRET / MOA assay, NRAS WT. It is filed as biochemical. To be noted: read-out: IC50* NRAS WT FRET data. The gist of the method:
as §1

The next assay addresses KRAS WT (Homo sapiens (Human), UniProt P01116+P62937). Briefly: Ras-Raf (BRAF RBD) disruption / FRET / MOA assay, KRAS WT. It is filed as biochemical. To be noted: read-out: IC50* KRAS WT FRET data. The method in brief: as §2
The target in a further assay is KRAS G12V (Homo sapiens (Human), UniProt P01116+P62937, G12V). Briefly: Ras-Raf (BRAF RBD) disruption / FRET / MOA assay, KRAS G12V. It is filed as biochemical. To be noted: read-out: IC50* KRAS G12V FRET data. The method in brief: as §2
Chain of KRAS G12V (P01116-2 other isoform, or with tags, fused parts or gaps G12V): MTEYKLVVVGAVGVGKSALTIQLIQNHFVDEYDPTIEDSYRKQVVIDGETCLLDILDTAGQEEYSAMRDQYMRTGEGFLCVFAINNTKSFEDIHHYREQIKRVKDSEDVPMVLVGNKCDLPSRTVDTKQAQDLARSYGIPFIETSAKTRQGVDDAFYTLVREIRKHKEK
Chain of KRAS G12V (P62937 whole entry): as the sequence (P62937 whole entry) above
In a further assay the target is KRAS G13D (Homo sapiens (Human), UniProt P01116+P62937, G13D). Briefly: Ras-Raf (BRAF RBD) disruption / FRET / MOA assay, KRAS G13D. It is filed as biochemical. To be noted: read-out: IC50* KRAS G13D FRET data. The gist of the method:
as §2

A further assay relates to NCI-H358 (K-Ras G12C). Briefly: CellTiter-Glo cell viability assay, NCI-H358. It is filed as cell-based, human. To be noted: Homo sapiens, NCI-H358, 120 h, NCI-H358, 5-day treatment; class symbols; read-out: Additional H358 Cell Viability assay data (K-Ras G12C, IC50). The gist of the method:
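Cells seeded, compound added directly, 5-day exposure. Plates to RT ~30 min, CellTiter-Glo luminescence read. Normalized to DMSO avg (x100); 4-parameter logistic fit.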
In general terms: Cellular ATP, detected with luciferase, serves as a proxy for viable cell number.

The target of another assay is NRAS G12C (Homo sapiens (Human), UniProt P01111+P62937, G12C). Briefly: Ras-Raf (BRAF RBD) disruption / FRET / MOA assay, NRAS G12C. To be noted: read-out: IC50* NRAS G12C FRET data. The class given is biochemical. The gist of the method:
as §2

A value given as a limit tells only on which side of the number the result lay.

As usually defined, the IC50 is the concentration that gives 50% inhibition.

Chain of NRAS G12C (P01111 whole entry G12C): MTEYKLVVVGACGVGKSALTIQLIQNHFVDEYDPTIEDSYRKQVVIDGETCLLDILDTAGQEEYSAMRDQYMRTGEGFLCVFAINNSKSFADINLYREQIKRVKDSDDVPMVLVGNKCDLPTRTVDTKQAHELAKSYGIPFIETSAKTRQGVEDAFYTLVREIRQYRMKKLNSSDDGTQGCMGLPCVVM
Chain of NRAS G12C (P62937 whole entry): as the sequence (P62937 whole entry) above
Chain of K-Ras G13C (P01116-2 other isoform, or with tags, fused parts or gaps G13C): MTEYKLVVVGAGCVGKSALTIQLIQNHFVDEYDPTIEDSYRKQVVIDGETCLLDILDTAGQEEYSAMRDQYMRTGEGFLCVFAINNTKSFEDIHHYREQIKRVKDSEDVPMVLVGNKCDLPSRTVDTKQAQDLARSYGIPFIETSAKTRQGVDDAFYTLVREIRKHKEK
Chain of K-Ras G13C (P62937 whole entry): as the sequence (P62937 whole entry) above
Chain of KRAS WT (P01116-2 other isoform, or with tags, fused parts or gaps): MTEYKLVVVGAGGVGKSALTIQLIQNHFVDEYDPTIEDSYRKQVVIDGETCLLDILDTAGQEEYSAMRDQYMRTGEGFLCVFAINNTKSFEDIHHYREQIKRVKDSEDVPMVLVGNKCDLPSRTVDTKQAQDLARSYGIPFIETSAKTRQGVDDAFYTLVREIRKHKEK
Chain of KRAS WT (P62937 whole entry): as the sequence (P62937 whole entry) above
Chain of NRAS WT (P01111 whole entry): as the sequence (P01111 whole entry G12C) above, with C12G counted along it
Chain of NRAS WT (P62937 whole entry): as the sequence (P62937 whole entry) above
Chain of KRAS G13D (P01116-2 other isoform, or with tags, fused parts or gaps G13D): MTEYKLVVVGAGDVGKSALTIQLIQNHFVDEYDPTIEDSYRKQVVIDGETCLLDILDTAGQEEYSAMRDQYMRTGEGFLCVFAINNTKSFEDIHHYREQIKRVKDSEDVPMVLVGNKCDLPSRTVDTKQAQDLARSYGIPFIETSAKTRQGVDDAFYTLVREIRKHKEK
Chain of KRAS G13D (P62937 whole entry): as the sequence (P62937 whole entry) above
Chain of KRAS Q61H (P01116-2 other isoform, or with tags, fused parts or gaps Q61H): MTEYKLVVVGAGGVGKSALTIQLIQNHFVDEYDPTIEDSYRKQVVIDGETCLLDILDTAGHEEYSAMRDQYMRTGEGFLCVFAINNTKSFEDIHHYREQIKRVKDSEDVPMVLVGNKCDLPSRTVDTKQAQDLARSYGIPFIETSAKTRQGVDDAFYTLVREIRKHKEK
Chain of KRAS Q61H (P62937 whole entry): as the sequence (P62937 whole entry) above
Chain of NRAS Q61R (P01111 whole entry Q61R): as the sequence (P01111 whole entry G12C) above, with C12G, Q61R counted along it
Chain of NRAS Q61R (P62937 whole entry): as the sequence (P62937 whole entry) above

Regarding `CCn1c(-c2cccnc2[C@H](C)OC)c2c3cc(ccc31)-c1csc(n1)C[C@H](NC(=O)[C@H](C(C)C)N(C)C(=O)N1C[C@H]3CN(C(=O)C#CC(C)(C)N(C)C)CC[C@H]31)C(=O)N1CCC[C@H](N1)C(=O)OCC(C)(C)C2` (atropisomer, axis not shown) [Example A624], the concentration for half-maximal inhibition (IC50) is 0.1 to 1 µM on NRAS Q61R; 0.1 to 1 µM at KRAS Q61H; 0.1 to 1 µM at K-Ras G13C; 0.01 to 0.1 µM at K-Ras G12C; 0.1 to 1 µM at NRAS WT; 0.1 to 1 µM at KRAS WT. Further, the half-inhibitory concentration (IC50) was 0.1 to 1 µM at KRAS G12V, 0.1 to 1 µM on KRAS G13D, below 0.01 µM in the assay with NCI-H358 (K-Ras G12C) and 0.01 to 0.1 µM at NRAS G12C.
With `CCn1c(-c2cccnc2[C@H](C)OC)c2c3cc(ccc31)-c1csc(n1)C[C@H](NC(=O)[C@H](F)COC1CN(C(=O)C#CC(C)(C)N(C)C)C1)C(=O)N1CCC[C@H](N1)C(=O)OCC(C)(C)C2` (atropisomer, axis not shown) [Example A627], the IC50 on NRAS Q61R is above 10 µM; at KRAS Q61H it was 1 to 10 µM; on K-Ras G13C it was above 10 µM; on K-Ras G12C it was below 0.01 µM; on NRAS WT, above 10 µM; on KRAS WT it was above 10 µM. Besides, the IC50 is above 10 µM at KRAS G12V, above 10 µM at KRAS G13D, below 0.01 µM in the assay with NCI-H358 (K-Ras G12C) and below 0.01 µM at NRAS G12C.
Regarding `C=C(C)C(=O)N1CC2(CCN(C(=O)N(C)[C@H](C(=O)N[C@H]3Cc4nc(cs4)-c4ccc5c(c4)c(c(-c4cccnc4[C@H](C)OC)n5CC)CC(C)(C)COC(=O)[C@@H]4CCCN(N4)C3=O)C(C)C)CC2)C1` (atropisomer, axis not shown) [Example A651], the IC50 lay in the range of 0.1 to 1 µM at NRAS Q61R; 0.01 to 0.1 µM on KRAS Q61H; 0.1 to 1 µM at K-Ras G13C; 0.01 to 0.1 µM at K-Ras G12C; 0.1 to 1 µM at NRAS WT; 0.1 to 1 µM at KRAS WT. Further, the IC50 was in the range of 0.1 to 1 µM at KRAS G12V, 0.1 to 1 µM at KRAS G13D, 0.01 to 0.1 µM in the assay on NCI-H358 (K-Ras G12C) and 0.01 to 0.1 µM on NRAS G12C.
For `C=CC(=O)N(C)C[C@H]1CCN(C(=O)N(C)[C@H](C(=O)N[C@H]2Cc3nc(cs3)-c3ccc4c(c3)c(c(-c3cccnc3[C@H](C)OC)n4CC)CC(C)(C)COC(=O)[C@@H]3CCCN(N3)C2=O)C(C)C)C1` (atropisomer, axis not shown) [Example A653], the IC50 on NRAS Q61R is 0.1 to 1 µM; on KRAS Q61H it was 0.01 to 0.1 µM; on K-Ras G13C, 0.1 to 1 µM; on K-Ras G12C, 0.01 to 0.1 µM; on NRAS WT, 0.1 to 1 µM; on KRAS WT, 0.1 to 1 µM. Also, the IC50 lay within 0.1 to 1 µM on KRAS G12V, 0.1 to 1 µM at KRAS G13D, 0.01 to 0.1 µM in the assay with NCI-H358 (K-Ras G12C) and 0.01 to 0.1 µM at NRAS G12C.
Consider `C=CC(=O)N(C)C[C@@H]1CCN(C(=O)N(C)[C@H](C(=O)N[C@H]2Cc3nc(cs3)-c3ccc4c(c3)c(c(-c3cccnc3[C@H](C)OC)n4CC)CC(C)(C)COC(=O)[C@@H]3CCCN(N3)C2=O)C(C)C)C1` (atropisomer, axis not shown) [Example A654], for which the IC50 at NRAS Q61R fell in the range of 0.1 to 1 µM; at KRAS Q61H, 0.01 to 0.1 µM; at K-Ras G13C, 0.1 to 1 µM; at K-Ras G12C, 0.1 to 1 µM; on NRAS WT, 0.1 to 1 µM; at KRAS WT it was 0.1 to 1 µM. For the same compound, the IC50 at KRAS G12V lay in the range of 0.1 to 1 µM; at KRAS G13D, 0.1 to 1 µM; in the assay with NCI-H358 (K-Ras G12C), 0.01 to 0.1 µM; on NRAS G12C, 0.01 to 0.1 µM.
As to `CCn1c(-c2cccnc2[C@H](C)OC)c2c3cc(ccc31)-c1cccc(c1)C[C@H](NC(=O)[C@@H](COC1CN(C(=O)C#CC(C)(C)N(C)CCO)C1)C(C)C)C(=O)N1CCC[C@H](N1)C(=O)OCC(C)(C)C2` (atropisomer, axis not shown) [Example A657], the IC50 on NRAS Q61R is above 10 µM; at KRAS Q61H, above 10 µM; at K-Ras G13C, 1 to 10 µM; at K-Ras G12C, 0.01 to 0.1 µM; on NRAS WT, above 10 µM; at KRAS WT, above 10 µM. Also, the IC50 on KRAS G12V was above 10 µM; on KRAS G13D, above 10 µM; in the assay with NCI-H358 (K-Ras G12C), below 0.01 µM; on NRAS G12C it was 0.01 to 0.1 µM.
Turning to `CCn1c(-c2cccnc2[C@H](C)OC)c2c3cc(ccc31)-c1csc(n1)C[C@H](NC(=O)[C@@H](COC1CN(C(=O)C#CC(C)(C)N(C)C)C1)OC)C(=O)N1CCC[C@H](N1)C(=O)OCC(C)(C)C2` (atropisomer, axis not shown) [Example A660], the IC50 was 1 to 10 µM at NRAS Q61R; 0.1 to 1 µM at KRAS Q61H; 0.1 to 1 µM at K-Ras G13C; below 0.01 µM on K-Ras G12C; 0.1 to 1 µM at NRAS WT; 0.1 to 1 µM on KRAS WT. The IC50 on KRAS G12V was 0.1 to 1 µM; at KRAS G13D, 1 to 10 µM; in the assay on NCI-H358 (K-Ras G12C) it was below 0.01 µM; at NRAS G12C it was below 0.01 µM.
Consider `C=CC(=O)N1CC[C@@]2(CCN2C(=O)N(C)[C@H](C(=O)N[C@H]2Cc3nc(cs3)-c3ccc4c(c3)c(c(-c3cccnc3[C@H](C)OC)n4CC)CC(C)(C)COC(=O)[C@@H]3CCCN(N3)C2=O)C(C)C)C1` (atropisomer, axis not shown) [Example A661], for which the IC50 on NRAS Q61R lay in the range of 0.1 to 1 µM; on KRAS Q61H it was 0.01 to 0.1 µM; on K-Ras G13C, 0.1 to 1 µM; at K-Ras G12C, 0.01 to 0.1 µM; at NRAS WT, 0.1 to 1 µM; at KRAS WT it was 0.1 to 1 µM. The IC50 on KRAS G12V was 1 to 10 µM; on KRAS G13D it was 0.1 to 1 µM; in the assay with NCI-H358 (K-Ras G12C) it was below 0.01 µM; at NRAS G12C it was 0.01 to 0.1 µM.
As to `CCn1c(-c2cccnc2[C@H](C)OC)c2c3cc(ccc31)C1=CCCN(C1)C[C@H](NC(=O)[C@@H](COC1CN(C(=O)C#CC(C)(C)N(C)C)C1)C(C)C)C(=O)N1CCC[C@H](N1)C(=O)OCC(C)(C)C2` (atropisomer, axis not shown) [Example A663, (2R)-2-(((1-(4-(dimethylamino)-4-methylpent-2-ynoyl)405yridine405-3-yl)oxy)methyl)-N-((6^3S,4S)-1^1-ethyl-1^2-(2-((S)-1-methoxyethyl)405yridine-3-yl)-10,10-dimethyl-5,7-dioxo-2^1,2^2,2^3,2^6,6^1,6^2,6^3,6^4,6^5,6^6-decahydro-1^1H-8-oxa-1(5,3)-indola-6(1,3)-pyridazina-2(5,1)-pyridinacycloundecaphane-4-yl)-3-methylbutanamide], the IC50 is above 10 µM at NRAS Q61R; above 10 µM at KRAS Q61H; 1 to 10 µM at K-Ras G13C; below 0.01 µM at K-Ras G12C; above 10 µM at NRAS WT; above 10 µM at KRAS WT. Besides, the IC50 on KRAS G12V is above 10 µM; at KRAS G13D it was above 10 µM; in the assay with NCI-H358 (K-Ras G12C), below 0.01 µM; on NRAS G12C, below 0.01 µM.
Regarding `CCn1c(-c2cccnc2[C@H](C)OC)c2c3cc(ccc31)-c1csc(n1)C[C@H](NC(=O)[C@H](C(C)C)N(C)C(=O)N1CCN(C(=O)/C=C/CN3CCOCC3)C3(CC3)C1)C(=O)N1CCC[C@H](N1)C(=O)OCC(C)(C)C2` (atropisomer, axis not shown) [Example A665], the concentration for half-maximal inhibition (IC50) lay in the range of 0.01 to 0.1 µM on NRAS Q61R; 0.01 to 0.1 µM on KRAS Q61H; 0.1 to 1 µM at K-Ras G13C; 0.01 to 0.1 µM on K-Ras G12C; 0.01 to 0.1 µM at NRAS WT; 0.01 to 0.1 µM at KRAS WT. The IC50 on KRAS G12V is 0.01 to 0.1 µM; on KRAS G13D it was 0.1 to 1 µM; with NCI-H358 (K-Ras G12C), below 0.01 µM; on NRAS G12C, 0.01 to 0.1 µM.

For the origin of these results see patent US11566007B2, “Ras inhibitors” (Revolution Medicines, Inc., priority 2019, dated 2023).
